Key:
PEA3 = PEA3 expression after FUT treatment; format: cell-based, human; details: MDAPanc-28, over time
jBid = assay: Western blot of Bid / jBid; format: cell-based, human; details: MDAPanc-28, FUT 80 μg/ml, 0 to 24 hours
Description: The present inventors examined whether apoptosis signaling cascade is triggered with the elevation of TNFRI expression induced by FUT treatment, using caspase 8 as an indicator. Cytoplasmic fraction was prepared from the human pancreas cancer cell line […]-28 treated with various concentrations of FUT for 24 hours. Western blot was performed and subjected to the detection with anti-caspase 8 antibody (Santa Cruz Biotechnology) (FIG. 6-a). Western blot was performed to examine temporal changes in the expression of caspase 8, p-FADD, Bid and jBid under a constant concentration of FUT (80 μg/ml) at short intervals from 0 to 24 hours of treatment (FIGS. 6-b, 6-c and 6-d). Anti-FADD antibody was obtained from Santa Cruz Biotechnology and anti-Bid antibody was obtained from BD Pharmingen.

FADD = assay: Western blot of FADD phosphorylation; format: cell-based, human
Description: The present inventors examined whether apoptosis signaling cascade is triggered with the elevation of TNFRI expression induced by FUT treatment, using caspase 8 as an indicator. Cytoplasmic fraction was prepared from the human pancreas cancer cell line MDAPanc-28 treated with various concentrations of FUT for 24 hours. Western blot was performed and subjected to the detection with anti-caspase 8 antibody (Santa Cruz Biotechnology) (FIG. 6-a). Western blot was performed to examine temporal changes in the expression of caspase 8, p-FADD, Bid and jBid under a constant concentration of FUT (80 μg/ml) at short intervals from 0 to 24 hours of treatment (FIGS. 6-b, 6-c and 6-d). Anti-FADD antibody was obtained from Santa Cruz Biotechnology and anti-Bid antibody was obtained from BD Pharmingen.
After the following treatment on the human pancreas cancer cell line MDAPanc-28, plasmatic compartment was prepared and Western blot was performed to examine the expression of phosphorylated FADD, caspase 8, NF-κB and IκBα. […] The same was true for IκBα expression (FIG. 7-c).

Murine fiber cells = assay: Effect on survival rate of normal cells; format: cell-based; details: 80 μg/ml
Text: Therefore, the present inventors next examined the effect of FUT treatment on normal cells. Murine fiber cells were used as normal cells.

IKK2 = target: T1, IKK2 (Homo sapiens, UniProt O14920); assay: IKK immunoprecipitation kinase assay and Western blot after FUT treatment of cells; format: cell-based
T1 construct: endogenous in cells; host or cells: MDAPanc-28 (human pancreas cancer cell line)
T1 sequence (O14920 whole entry): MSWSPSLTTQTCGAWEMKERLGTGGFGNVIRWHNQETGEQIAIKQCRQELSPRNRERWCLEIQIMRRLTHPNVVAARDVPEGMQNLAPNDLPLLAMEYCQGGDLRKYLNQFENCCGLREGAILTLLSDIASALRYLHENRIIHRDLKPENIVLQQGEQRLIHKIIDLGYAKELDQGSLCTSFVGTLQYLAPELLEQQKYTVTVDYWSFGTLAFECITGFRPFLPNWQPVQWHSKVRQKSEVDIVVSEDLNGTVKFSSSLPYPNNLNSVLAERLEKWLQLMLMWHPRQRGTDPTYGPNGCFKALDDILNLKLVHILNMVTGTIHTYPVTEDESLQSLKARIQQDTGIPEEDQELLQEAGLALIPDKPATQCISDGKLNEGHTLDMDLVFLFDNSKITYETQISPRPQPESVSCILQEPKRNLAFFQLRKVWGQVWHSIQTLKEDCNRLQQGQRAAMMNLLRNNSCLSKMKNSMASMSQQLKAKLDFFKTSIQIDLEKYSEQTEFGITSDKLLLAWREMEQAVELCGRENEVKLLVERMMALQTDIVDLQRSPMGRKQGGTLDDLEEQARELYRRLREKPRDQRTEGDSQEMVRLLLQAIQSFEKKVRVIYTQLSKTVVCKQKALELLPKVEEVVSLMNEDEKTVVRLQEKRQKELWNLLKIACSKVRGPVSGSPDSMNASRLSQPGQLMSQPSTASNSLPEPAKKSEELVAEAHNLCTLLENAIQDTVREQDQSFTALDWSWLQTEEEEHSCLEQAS
T1 sequence (O15111 whole entry partner): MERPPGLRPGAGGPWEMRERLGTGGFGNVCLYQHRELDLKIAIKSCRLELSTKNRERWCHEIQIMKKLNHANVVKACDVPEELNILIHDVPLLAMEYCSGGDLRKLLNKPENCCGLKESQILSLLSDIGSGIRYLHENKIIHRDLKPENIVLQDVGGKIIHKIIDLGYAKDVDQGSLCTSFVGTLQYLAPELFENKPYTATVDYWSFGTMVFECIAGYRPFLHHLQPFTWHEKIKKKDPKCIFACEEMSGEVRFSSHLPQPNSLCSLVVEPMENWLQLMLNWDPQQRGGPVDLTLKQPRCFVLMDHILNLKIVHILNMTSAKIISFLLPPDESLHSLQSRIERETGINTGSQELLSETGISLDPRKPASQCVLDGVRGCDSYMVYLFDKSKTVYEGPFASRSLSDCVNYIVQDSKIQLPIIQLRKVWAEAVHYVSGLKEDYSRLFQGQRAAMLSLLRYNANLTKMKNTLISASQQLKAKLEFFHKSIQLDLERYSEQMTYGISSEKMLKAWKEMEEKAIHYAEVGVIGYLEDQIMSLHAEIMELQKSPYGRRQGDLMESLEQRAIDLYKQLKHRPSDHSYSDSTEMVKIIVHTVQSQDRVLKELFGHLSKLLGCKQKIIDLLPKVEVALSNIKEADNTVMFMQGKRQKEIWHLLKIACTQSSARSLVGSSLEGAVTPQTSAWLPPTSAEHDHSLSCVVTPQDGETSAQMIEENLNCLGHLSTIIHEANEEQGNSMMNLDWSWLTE
T1 sequence (Q9Y6K9 whole entry partner): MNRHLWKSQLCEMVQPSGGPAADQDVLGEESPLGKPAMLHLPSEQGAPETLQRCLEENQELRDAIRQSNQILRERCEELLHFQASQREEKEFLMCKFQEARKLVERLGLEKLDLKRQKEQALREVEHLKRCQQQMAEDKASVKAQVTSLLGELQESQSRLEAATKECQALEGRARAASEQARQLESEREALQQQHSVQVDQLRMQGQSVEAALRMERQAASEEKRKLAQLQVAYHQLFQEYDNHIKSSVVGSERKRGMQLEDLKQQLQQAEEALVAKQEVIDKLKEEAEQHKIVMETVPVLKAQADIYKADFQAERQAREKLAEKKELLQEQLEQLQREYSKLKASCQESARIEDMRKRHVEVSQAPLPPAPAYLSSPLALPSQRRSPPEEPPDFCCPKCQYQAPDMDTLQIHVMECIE
Description: (§1) After FUT treatment, the human pancreas cancer cell line […]-28 was rinsed with ice-cold PBS to prepare 800 μg of cytoplasmic fraction. After adding glutathione sepharose beads (Amersham Pharmacia Biotech), the sample was invertedly mixed at 4° C. for 3 hours to remove non-specific absorption fractions. 4 μg of anti-IKK1/2 antibody (Santa Cruz Biotechnology) were added to the supernatant for reaction at 4° C. overnight. After adding glutathione sepharose beads, the sample was further mixed at 4° C. for 3 hours. The beads containing bound immunocomplex were rinsed twice with PBS and then subjected to immunoprecipitation and measurements of enzyme activity. To conduct the measurements of enzyme activity, the above mentioned beads were rinsed with kinase buffer (25 mM HEPES containing 150 mM NaCl, 25 mM beta-glycerophosphate and 10 mM MgCl2) to perform enzyme reaction. 5 uCi of ^32P-labeled y-ATP and 1 μg of the substrate GST-IκBα were reacted in the kinase buffer for 30 minutes at 37° C. The reaction was terminated by adding SDS sample buffer. The sample was analyzed by SDS-PAGE followed by autoradiography for detection.

IKK1 = target: T2, IKK1 (Homo sapiens, UniProt O15111); assay: as above; format: cell-based
T2 construct: endogenous in cells; host or cells: MDAPanc-28 (human pancreas cancer cell line)
T2 sequence (O15111 whole entry): as the sequence (O15111 whole entry partner) above
T2 sequence (O14920 whole entry partner): as the sequence (O14920 whole entry) above
T2 sequence (Q9Y6K9 whole entry partner): as the sequence (Q9Y6K9 whole entry partner) above
Description: as §1

[1] = tested on: human pancreas cancer cell line MDAPanc-28; assay: MTT assay of cell survival rate / living cell ratio; format: cell-based
Description: The present inventors examined the concomitant effect of FUT and TNF-α on apoptosis in cancer cells. After treatment with TNF-α for 24 hours, the human pancreas cancer cell line MDAPanc-28 was further cultured for 24 hours with various concentrations of FUT being added. Cells prepared were then subjected to an MTT assay according to the method generally known to calculate the cell survival rates. Also, DNA was extracted to perform a DNA fragmentation assay.
More specifically, with regard to the MTT assay, each well was seeded with 2000 cells per 100 μl of culture medium in a 96-well microtiterplate, followed by the above mentioned treatment. After plate centrifugation, each well received 5 mg/ml of MTT (Sigma) PBS solution instead of culture medium and was incubated for 4 hours at 37° C. After removing the supernatant, 100 μl of DMSO were added to dissolve the cells. The absorbance of the samples was measured at 570 nm by using a microplate reader. 8 wells were subjected to the same condition in this experiment. Two independent experiments were performed, and the average was calculated.
However, the agents are of different types with different mechanisms of action. Therefore, the present inventors examined the effect of each agent on the living cell ratio in the human pancreas cancer cell line MDAPanc-28 singularly. After being treated with each agent for 24 hours and 48 hours, the human pancreas cancer cell line MDAPanc-28 was subjected to a MTT assay. The MTT assay was performed by the method described in Example 9.

NF-κB = assay: Gel shift assay of active NF-κB in nuclear extracts; format: cell-based, human
Description: The human pancreas cancer cell line MDAPanc-28 was treated with various concentrations of FUT to examine the effect on NF-κB activation. NF-κB is constantly activated in the MDAPanc-28 cell line. A gel shift assay with a κB probe was performed using the nuclear extracts from cells treated with various concentrations of FUT to detect NF-κB which was activated and translocated into the nucleus. More specifically, 10 μg of nuclear extracts were reacted with 1 μg of poly (dI-dC) (Pharmacia, Picataway, N.J.) in binding buffer (75 mM NaCl, 15 mM Tris-HCl, pH 7.5, 1.5 mM dithiothreitol, 25% glycerol and 20 mg/ml bovine serum albumin) for 30 minutes at 4° C. ^32P-labeled oligonucleotide probes (SEQ ID Nos: 1 to 4) were then added for reaction for 20 minutes at room temperature and electrophoresis was performed (4% polyacrylamide gel, 0.25×TBE; 22.5 mM Tris, 22.5 mM borate and 500 μM EDTA, pH 8.0). After drying at 80° C. for 1 hour, the gel was exposed to Kodak film (Eastman Kodak Co., Rochester, N.Y.) at −80° C. for detection. Oct-1 was used as a positive control.

[2] = MDAPanc-28 cytoplasmic fraction, before and after FUT treatment
[3] = immunoprecipitate from FUT-treated MDAPanc-28, substrate GST-IκBα

## N=C(N)c1ccc2cc(OC(=O)c3ccc(N=C(N)N)cc3)ccc2c1 [FUT, 6-amidino-2-naphthyl p-guanidinobenzoate dimethanesulfonate]
PEA3
  PEA3 expression: increased PEA3 expression overtime
jBid
  expression of JBid, the degradation product of Bid: overtime increase in the expression of JBid
FADD; MDAPanc-28, FUT 80 μg/ml pretreatment then TNF-α 5 ng/ml 24 hours, compared to FUT alone
  FADD phosphorylation with TNF-α stimulation: enhanced FADD phosphorylation
FADD; MDAPanc-28, FUT 80 μg/ml, 0 to 24 hours
  FADD phosphorylation: promoted FADD phosphorylation overtime
Murine fiber cells
  cell survival rate of normal cells: had no effect on cell survival rate
IKK2; [2]
  expression level of IKK2: remain intact
IKK2; [3]
  enzyme activity of IKK2: reduces the enzyme activities of IKK1 and IKK2
IKK1; [2]
  expression level of IKK1: remain intact
IKK1; [3]
  enzyme activity of IKK1: reduces the enzyme activities of IKK1 and IKK2
[1]; MDAPanc-28, TNF-α 24 hours then various concentrations of FUT 24 hours, MTT, compared with control cells
  cell survival rate: significantly declined
[1]; MDAPanc-28, comparison of FUT with PS1145
  speed of inhibitory effect on proliferation: more rapid inhibitory effect than PS1145
[1]; MDAPanc-28, single agent, 24 hours and 48 hours, MTT
  cell proliferation / living cell ratio: inhibited in a FUT concentration-dependent manner
[1]; MDAPanc-28, single agent, MTT
  living cell ratio at 48 hours compared to 24 hours: slightly increased at 48 hours compared to the ratio at 24 hours
NF-κB; MDAPanc-28, time after addition of FUT up to 48 hours
  NF-κB activation over time: inhibited overtime up to 24 hours after addition of FUT and then was restored to a steady-state level at 48 hours
NF-κB; MDAPanc-28, various concentrations of FUT
  NF-κB activation: inhibited NF-κB activation in a concentration-dependent manner

— patent publication US20100015249A1, “Antitumor agent containing 6'-amidino-2'-naphthyl 4-guanidinobenzoate or salt thereof” (priority 2005, published 2010)
